Measured values: PubChem BioAssay (NCI)
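Briefly, cells in 96-well plates were exposed to five compound concentrations for 48 h, and endpoints were estimated by linear interpolation. The concentration for full growth arrest is given as TGI.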

Key:
Experiment in all cases: DTP human tumour cell line panel, 48 h
786-0 renal = system: 786-0 renal
A498 renal = system: A498 renal
A549 NSCLC = system: A549 NSCLC
ACHN renal = system: ACHN renal
BT-549 breast = system: BT-549 breast
CAKI-1 renal = system: CAKI-1 renal
CCRF-CEM leukemia = system: CCRF-CEM leukemia
COLO 205 colon = system: COLO 205 colon
DU-145 prostate = system: DU-145 prostate
EKVX NSCLC = system: EKVX NSCLC
HCC-2998 colon = system: HCC-2998 colon
HCT-116 colon = system: HCT-116 colon
HCT-15 colon = system: HCT-15 colon
HL-60(TB) leukemia = system: HL-60(TB) leukemia
HOP-62 NSCLC = system: HOP-62 NSCLC
HOP-92 NSCLC = system: HOP-92 NSCLC
HS 578T breast = system: HS 578T breast
HT29 colon = system: HT29 colon
IGROV1 ovarian = system: IGROV1 ovarian
K-562 leukemia = system: K-562 leukemia
KM12 colon = system: KM12 colon
LOX IMVI melanoma = system: LOX IMVI melanoma
M14 melanoma = system: M14 melanoma
MALME-3M melanoma = system: MALME-3M melanoma
MCF7 breast = system: MCF7 breast
MDA-MB-231 breast = system: MDA-MB-231 breast
MDA-MB-435 = system: MDA-MB-435
MDA-N = system: MDA-N
MOLT-4 leukemia = system: MOLT-4 leukemia
NCI-H23 lung = system: NCI-H23 lung
NCI-H460 lung = system: NCI-H460 lung
NCI-H522 lung = system: NCI-H522 lung
NCI/ADR-RES ovarian = system: NCI/ADR-RES ovarian
OVCAR-3 ovarian = system: OVCAR-3 ovarian
OVCAR-4 ovarian = system: OVCAR-4 ovarian
OVCAR-5 ovarian = system: OVCAR-5 ovarian
OVCAR-8 ovarian = system: OVCAR-8 ovarian
PC-3 prostate = system: PC-3 prostate
RPMI-8226 leukemia = system: RPMI-8226 leukemia
RXF 393 renal = system: RXF 393 renal
SF-268 CNS = system: SF-268 CNS
SF-295 CNS = system: SF-295 CNS
SF-539 CNS = system: SF-539 CNS
SK-MEL-2 melanoma = system: SK-MEL-2 melanoma
SK-MEL-28 melanoma = system: SK-MEL-28 melanoma
SK-MEL-5 melanoma = system: SK-MEL-5 melanoma
SK-OV-3 ovarian = system: SK-OV-3 ovarian
SN12C renal = system: SN12C renal
SNB-19 CNS = system: SNB-19 CNS
SW-620 colon = system: SW-620 colon
T-47D breast = system: T-47D breast
TK-10 renal = system: TK-10 renal
U251 CNS = system: U251 CNS
UACC-257 melanoma = system: UACC-257 melanoma
UACC-62 melanoma = system: UACC-62 melanoma
NCI-H226 lung = system: NCI-H226 lung
SNB-75 CNS = system: SNB-75 CNS
UO-31 renal = system: UO-31 renal

Work on `CC(C)(C)c1ccc2c(c1)C#Cc1cc3c(cc1OCCCO2)C#Cc1cc(C(C)(C)C)ccc1OCCCO3` yielded a TGI (786-0 renal) of over 100 µM, a TGI (A498 renal) of over 100 µM and a TGI (A549 NSCLC) of over 100 µM. The TGI (ACHN renal) was over 100 µM, the TGI (BT-549 breast) was 3.39 µM and the TGI (CAKI-1 renal) was over 100 µM. It also gave a TGI (CCRF-CEM leukemia) of over 100 µM, a TGI (COLO 205 colon) of over 100 µM and a TGI (DU-145 prostate) of over 100 µM. For the same compound, the TGI (EKVX NSCLC) was over 100 µM, the TGI (HCC-2998 colon) was over 100 µM and the TGI (HCT-116 colon) was over 100 µM. It also gave a TGI (HCT-15 colon) of 5.92 µM, a TGI (HL-60(TB) leukemia) of over 100 µM and a TGI (HOP-62 NSCLC) of over 100 µM. It also gave a TGI (HOP-92 NSCLC) of over 100 µM, a TGI (HS 578T breast) of over 100 µM and a TGI (HT29 colon) of over 100 µM. It also gave a TGI (IGROV1 ovarian) of over 100 µM, a TGI (K-562 leukemia) of over 100 µM and a TGI (KM12 colon) of over 100 µM. It also gave a TGI (LOX IMVI melanoma) of over 100 µM, a TGI (M14 melanoma) of over 100 µM and a TGI (MALME-3M melanoma) of over 100 µM. The TGI (MCF7 breast) was over 100 µM, the TGI (MDA-MB-231 breast) was over 100 µM and the TGI (MDA-MB-435) was over 100 µM. It also gave a TGI (MDA-N) of over 100 µM, a TGI (MOLT-4 leukemia) of over 100 µM and a TGI (NCI-H23 lung) of 4.54 µM. It also gave a TGI (NCI-H460 lung) of over 100 µM, a TGI (NCI-H522 lung) of over 100 µM and a TGI (NCI/ADR-RES ovarian) of 29.5 µM. For the same compound, the TGI (OVCAR-3 ovarian) was over 100 µM, the TGI (OVCAR-4 ovarian) was over 100 µM and the TGI (OVCAR-5 ovarian) was over 100 µM. It also gave a TGI (OVCAR-8 ovarian) of over 100 µM, a TGI (PC-3 prostate) of over 100 µM and a TGI (RPMI-8226 leukemia) of over 100 µM. The TGI (RXF 393 renal) was over 100 µM, the TGI (SF-268 CNS) was over 100 µM and the TGI (SF-295 CNS) was over 100 µM. The TGI (SF-539 CNS) was over 100 µM, the TGI (SK-MEL-2 melanoma) was over 100 µM and the TGI (SK-MEL-28 melanoma) was over 100 µM. It also gave a TGI (SK-MEL-5 melanoma) of over 100 µM, a TGI (SK-OV-3 ovarian) of over 100 µM and a TGI (SN12C renal) of over 100 µM. The TGI (SNB-19 CNS) was over 100 µM, the TGI (SW-620 colon) was over 100 µM and the TGI (T-47D breast) was over 100 µM. It also gave a TGI (TK-10 renal) of over 100 µM, a TGI (U251 CNS) of over 100 µM and a TGI (UACC-257 melanoma) of over 100 µM. It also gave a TGI (UACC-62 melanoma) of over 100 µM.
`Cc1cc(N(C)C)c2ccccc2[n+]1CCCCCCCCCC[n+]1c(C)cc(N(C)C)c2ccccc21` was tested, and the TGI (786-0 renal) was 19.5 µM, the TGI (A498 renal) was 14 µM and the TGI (A549 NSCLC) was 18 µM. For the same compound, the TGI (ACHN renal) was 6.34 µM, the TGI (BT-549 breast) was 15.4 µM and the TGI (CAKI-1 renal) was 20 µM. For the same compound, the TGI (CCRF-CEM leukemia) was 13.5 µM, the TGI (COLO 205 colon) was 6.07 µM and the TGI (DU-145 prostate) was 16.2 µM. The TGI (EKVX NSCLC) was 35.3 µM, the TGI (HCC-2998 colon) was 13.5 µM and the TGI (HCT-116 colon) was 12.4 µM. It also gave a TGI (HCT-15 colon) of 14.4 µM, a TGI (HL-60(TB) leukemia) of 2.18 µM and a TGI (HOP-92 NSCLC) of 5.44 µM. The TGI (HS 578T breast) was over 95.3 µM, the TGI (HT29 colon) was over 35 µM and the TGI (IGROV1 ovarian) was over 20.6 µM. For the same compound, the TGI (K-562 leukemia) was over 35.3 µM, the TGI (KM12 colon) was 1.61 µM and the TGI (LOX IMVI melanoma) was 3.24 µM. It also gave a TGI (M14 melanoma) of 12 µM, a TGI (MALME-3M melanoma) of over 41.6 µM and a TGI (MCF7 breast) of 26.3 µM. It also gave a TGI (MDA-MB-231 breast) of 6.15 µM, a TGI (MDA-MB-435) of 3.26 µM and a TGI (MDA-N) of 2.73 µM. For the same compound, the TGI (MOLT-4 leukemia) was 13.8 µM, the TGI (NCI-H226 lung) was over 100 µM and the TGI (NCI-H23 lung) was 5.32 µM. It also gave a TGI (NCI-H460 lung) of 13 µM, a TGI (NCI-H522 lung) of over 29.7 µM and a TGI (NCI/ADR-RES ovarian) of 43.9 µM. It also gave a TGI (OVCAR-3 ovarian) of 10.5 µM, a TGI (OVCAR-4 ovarian) of 22.2 µM and a TGI (OVCAR-5 ovarian) of 15.6 µM. The TGI (OVCAR-8 ovarian) was 16 µM, the TGI (PC-3 prostate) was 7.48 µM and the TGI (RPMI-8226 leukemia) was 4.33 µM. For the same compound, the TGI (RXF 393 renal) was 35 µM, the TGI (SF-268 CNS) was 33.3 µM and the TGI (SF-295 CNS) was 8.95 µM. It also gave a TGI (SF-539 CNS) of 8.15 µM, a TGI (SK-MEL-2 melanoma) of 4.98 µM and a TGI (SK-MEL-28 melanoma) of 3.54 µM. The TGI (SK-MEL-5 melanoma) was 1.07 µM, the TGI (SK-OV-3 ovarian) was 5.81 µM and the TGI (SN12C renal) was 4.72 µM. For the same compound, the TGI (SNB-19 CNS) was 8.19 µM, the TGI (SNB-75 CNS) was 8.91 µM and the TGI (SW-620 colon) was 16.5 µM. It also gave a TGI (T-47D breast) of 15.2 µM, a TGI (TK-10 renal) of 18 µM and a TGI (U251 CNS) of 11.5 µM. It also gave a TGI (UACC-257 melanoma) of 2.3 µM, a TGI (UACC-62 melanoma) of 3.35 µM and a TGI (UO-31 renal) of 13.1 µM.
